# Square brackets hold non-standard residues; d marks the D form. Peptide text beside a SMILES is read from it. Ala(indol-4-yl) = N[C@@H](Cc1cccc2[nH]ccc12)C(=O)O; NMeR = CN[C@@H](CCCNC(=N)N)C(=O)O; Tle = CC(C)(C)[C@H](N)C(=O)O; Dab = NCC[C@H](N)C(=O)O
# Legend:
# intact rabbit cornea = assay: In vitro cytotoxicity study, percentage of living cells; type: cell-based; details: for death of corneal cells: FIGURE 10A; for corneal cells died, compared to untreated cells: 0.1, 0.25 and 0.5 mg/ml, 24 hour period, FIGURE 10B
# Procedure: In vitro cytotoxicity studies were performed in intact rabbit cornea. Proparacaine (0.5 mM, 1 mM, 5 mM, and 10 mM), tetracaine (0.5 mM, 1 mM, 5 mM, and 10 mM), NT71 (0.1 mg/ml (0.13 mM), 0.25 mg/ml (0.32 mM), and 0.5 mg/ml (0.63 mM)), NT72 (0.1 mg/ml (0.15 mM), 0.25 mg/ml (0.38 mM), and 0.5 mg/ml (0.76 mM)), and 70% MeOH were added to intact rabbit corneas. The percentage of living cells was determined over a 24 hour period using light microscopy and fluorescence. As apparent from FIGURE 10A, tetracaine was cytotoxic to the corneal cells at concentrations as low as 0.5 mM, resulting in the death of about half of the corneal cells observed.
# [1] = system: primary rabbit corneal epithelial cells; assay: In vitro scratch assay, cell migration and scratch closure; type: cell-based; details: 0.1 mg/ml and 0.5 mg/ml; FIGURES 7-9
# Procedure: The limbus was removed from both eyes of anesthetized rabbits and dissected to include 1.0 to 1.5 mm peripheral cornea and 1.0 to 1.5 mm beyond the anatomical limbus. Each limbus was divided into four small segments. Two segments were used for each 60 mm square plate.
# Cultured rabbit corneal epithelial cells were utilized to measure the closure of a scratch made in a confluent epithelial monolayer in the presence of varying doses of the test compounds (0.1 mg/ml to 10 mg/ml). Uniform scratches were made in confluent monolayers of primary rabbit corneal epithelial cells ("in vitro scratch assay").
# Individual cell migration assays were performed in the presence of the test compounds and compared with standard doses of tetracaine and proparacaine. Movement of cells from the edge of the scratch (wound) toward the middle of the scratch (wound) were measured over 24 hours. […] Cells in which NT71 and NT72 were added migrated at least 40 µm, alternatively at least 50 µm, alternatively at least 60 µm, alternatively at least 70 µm over 24 hours.
# There was very little closure of the wounds in which proparacaine and tetracaine were added. […] In contrast, control cells substantially closed the defect within 24 hours.
# rabbit cornea [2] = assay: In vivo superficial keratotomy, administration every 2 hours for 36 hours; parameters: species or system rabbits
# Procedure: In vivo superficial keratotomy experiments were performed on rabbits to access healing effects in an animal model.
# Starting with equivalent circular wounds of 6.5 mm diameter (33 mm^2), after 36 hrs of administration every 2 hours of 1 mg/mL NT71(SAR001), NT72 (SAR002), tetracaine or saline (control), the persistent epithelial defect (wound) size was: • Control (saline) 4 mm^2 • Tetracaine 14.4 mm^2 • SAR001 2.8 mm^2 • SAR002 4.8 mm^2
# rabbit cornea [3] = assay: Wound healing after excimer laser keratectomy; type: in vivo, rabbits
# Procedure: Anesthetized rabbits were placed under an operating microscope, a sterile lid speculum placed in the right eye, and a 6.5 mm excimer laser ablation of 75 microns centered on the pupil was made using a Ladarvision 4000 excimer laser. A single drop of moxifloxacin 0.1 % was used at the end of the procedure. SAR001 (NT71, 0.1% w/w), SAR002 (NT72, 0.1 % w/w), or NT69 was instilled at the end of the procedure and repeated at 4 hour intervals. Control animals underwent the same surgical procedure. Standard doses of tetracaine (0.5% w/w) or proparacaine (not shown) were instilled at the end of the procedure and at 4 hour intervals thereafter.
# (§1) Fluorescein (1%) was instilled into the right eye at times 0, 1, 2, 6, 12, 36, 48, 72, 96, and 120 hours after the procedure and the size of the epithelial defect measured via slit lamp photography. Degree of blinking, tearing, conjunctival injection, anterior chamber inflammation, and intraocular pressure were evaluated.
# rabbit cornea [4] = assay: In vivo superficial keratotomy, administration every 4 hours for 5 days; parameters: species or system rabbits
# From the text: Anesthetized rabbits were placed under an operating microscope, a sterile lid speculum placed in the right eye, and a 6.5 mm trephine used to make a partial thickness epithelial cut centered on the pupil. A sterile beaver blade was used to remove the epithelium within the area of demarcation. A single drop of moxifloxacin 0.1% was instilled at the end of the procedure. The speculum was removed and the animal allowed to recover from the systemic anesthesia. The topical agent under investigation was placed in the eye every 4 hours for 5 days. […] The control animals underwent the same surgical procedure. At the end of the procedure, 0.5% proparacaine or vehicle was instilled in the eye every 4 hours.
# as §1, with “the” for “the right”, “The animals were scored for degree” for “Degree”, “pressure.” for “pressure were evaluated.”
compound,measurement,setting,value
CCCCNc1ccc(C(=O)OCCN(C)C)cc1 [tetracaine],death of corneal cells,intact rabbit cornea; 0.5 mM,about half
same,death of corneal cells,intact rabbit cornea; 1 mM,almost all
same,closure of scratch,[1],did not close
same,rate of scratch closure as compared to control,[1],greatest delay in monolayer closure
same,persistent epithelial defect (wound) size,"rabbit cornea [2]; after 36 hrs, 1 mg/mL every 2 hours, starting wound 33 mm^2",14.4 mm^2
same,state of wound,rabbit cornea [2]; after 48 hours,residual epithelial defect was still present
same,time to disappearance of epithelial defect,"rabbit cornea [3]; instilled at 4 hour intervals, SAR001, SAR002 0.1% w/w, tetracaine 0.5% w/w, FIGURE 11",96 to 110 h
same,animals with incomplete disappearance of the defect,rabbit cornea [3]; tetracaine 0.5% w/w at 4 hour intervals,50%
CC(C)C[C@H](NC(=O)[C@@H](NC(=O)[C@H](Cc1cccc2[nH]ccc12)NC(=O)[C@@H]1CCCN1C(=O)[C@H](N)CCCCN)C(C)(C)C)C(=O)O [NT72] (H-[dK]P[Ala(indol-4-yl)][Tle]L-OH),"corneal cells died, compared to untreated cells",intact rabbit cornea,< 20%
CCCOc1ccc(C(=O)OCCN(CC)CC)cc1N [proparacaine],death of corneal cells,intact rabbit cornea; 5 mM,almost all
same,closure of scratch,[1],did not close
same,animals with incomplete disappearance of the defect,"rabbit cornea [4]; at 96-120 hours, 0.5% proparacaine every 4 hours",40%
same,time to disappearance of epithelial defect,"rabbit cornea [4]; every 4 hours for 5 days, neurotensin analogs 0.6 mg/ml, proparacaine 0.5%",96 to 120 h
CN[C@@H](CCCNC(=N)N)C(=O)N[C@@H](CCN)C(=O)N1CCC[C@H]1C(=O)N[C@@H](Cc1cccc2[nH]ccc12)C(=O)N[C@H](C(=O)N[C@@H](CC(C)C)C(=O)O)C(C)(C)C [NT71] (H-[NMeR][Dab]P[Ala(indol-4-yl)][Tle]L-OH),"corneal cells died, compared to untreated cells",intact rabbit cornea,< 20%
